Values quoted from earlier work, collected in patent publication US20050003341A1, “Drug discovery assays based on the biology of atherosclerosis, cancer, and alopecia” (priority 2003, published 2005).
Like-named read-outs stand apart in the source and are kept apart here.

How the values were obtained:
[1] = test system: TF; settings: for Cu^+2 induced procoagulant activity: probucol 20, vitamin E 50, BHT 50, U74389G 20 μmol/L
[2] = test system: ERK
[3] = test system: U937; settings: p<0.05
[4] = test system: NF-κB
[5] = test system: NF-κB; remark: listed apart in the source
[6] = test system: TF; settings: cultured monocytes
[7] = test system: ACE
[8] = test system: ACE; settings: 0.5 mg/kg/day, p<0.05
[9] = test system: isolated hair follicles; settings: for scalp hair growth: Philpott 1996
[10] = test system: fibronectin
[11] = test system: TF; settings: cells incubated with AGE-alb
[12] = test system: AR gene; settings: 10^−8 M
[13] = test system: TF
[14] = test system: AT1-receptor; settings: 25 mg/kg/day
[15] = test system: VCAM-1; settings: 36 dyn/cm^2; 7.0-13.99 minutes
[16] = test system: apoE(−/−) mice; settings: aortic sinus, 48 hours post injection
[17] = test system: apo(a) transgenic mice; settings: 15 μg, 12 weeks
[18] = test system: cell attachment to fibronectin; settings: for cell attachment to coated plates: six ocular melanoma cell lines (Mac Neil 1994A)
[19] = test system: CD18; settings: neutrophils, 10^−8 M for 10 min
[20] = test system: U251.3 glioma cells; settings: 3-100 μg/ml, dose dependently
[21] = a variety of cells, cited studies
[22] = Peterziel 1999, dependent on presence of AR

For CC(C)(Sc1cc(C(C)(C)C)c(O)c(C(C)(C)C)c1)Sc1cc(C(C)(C)C)c(O)c(C(C)(C)C)c1 [probucol], the “Cu^+2 induced procoagulant activity” value [1] is given as “inhibited”.

In the case of [Cu+2] [Cu^+2], the procoagulant activity ([1]; 10 hours, up to 20 μmol/L, without 8-hydroxyquinoline) is listed as “no effect”, the “TF mRNA levels” value ([1]; at 2 hours, relative to basal) is listed as 50% and the “increase in TF mRNA” value ([1]; at 6 hours) is listed as 3.5 fold.

For C[C@]12CCC(=O)C[C@@H]1CC[C@@H]1[C@@H]2CC[C@]2(C)[C@@H](O)CC[C@@H]12 [DHT, Dihydrotestosterone], the ERK phosphorylation [2] is listed as “**The study reports no increase in ERK phosphorylation in LNCaP or PC-3 cells following treatment with DHT” and the Elk-1 transcription activity [2] is listed as “*The study also showed an increase in Elk-1 transcription activity following treatment with the androgen DHT, or the antiandrogens casodex and hydroxyflutamide. ERK phosphorylation activates Elk-1, which is a member of the ETS family”.

For CC(C)CCC[C@@H](C)[C@H]1CC[C@H]2[C@@H]3C(=O)C=C4C[C@@H](O)CC[C@]4(C)[C@H]3CC[C@]12C [7-ketocholesterol], the “GSH content compared to controls” value [3] is given as “lower GSH content”.

In the case of CCOC(=O)[C@H](CCc1ccccc1)N[C@@H](C)C(=O)N1Cc2ccccc2C[C@H]1C(=O)O [quinapril], the “NF-κB activity in atherosclerotic vessels” value ([4]; rabbit femoral arteries) is listed as “decreased”.

For C[C@]12C=CC(=O)C=C1CC[C@@H]1C2=CC[C@]2(C)[C@@H](C(=O)CN3CCN(c4cc(N5CCCC5)nc(N5CCCC5)n4)CC3)CC[C@@H]12.O=C(O)/C=C\C(=O)O [U74389G], the “Cu^+2 induced procoagulant activity” value [1] is listed as “inhibited”.

For CC[C@H]1CN2CCc3cc(OC)c(OC)cc3[C@@H]2C[C@@H]1C[C@H]1NCCc2cc(OC)c(OC)cc21 [emetine], the “c-mos expression and ERK phosphorylation” value ([2]; starfish eggs) is given as “inhibition”.

For estrogen, the ERK phosphorylation [2, 21] is given as “increase”.

For CC[C@H](C)C(=O)O[C@H]1CCC=C2C=C[C@H](C)[C@H](CC[C@@H]3C[C@@H](O)CC(=O)O3)[C@H]21 [mevastatin], the NF-κB activation ([5]; EC) is given as “inhibited”.

For “angiotensin II: angiotensin II (DRVYIHPF; Angiotensin-2; UniProt P01019 25-32, looked up)”, the “TF antigen and mRNA” value [6] is listed as “dose-depended increase” and the NF-κB activation ([4]; cultured monocytes and VSMC) is listed as “increased”.

In the case of C[C@H](CSC(=O)c1ccccc1)C(=O)N1C[C@@H](Sc2ccccc2)C[C@H]1C(=O)O [zofenopril], the “macrophage-derived foam cells staining in the intima” value ([7]; 1 mg/kg/day) is given as “significant decrease”, the “native LDL staining in the intima” value ([7]; 1 mg/kg/day) is given as “significant decrease” and the “total lesion area compared to placebo” value ([7]; zofenopril 0.05 or 1, captopril 5, enalapril 0.5 mg/kg/day) is given as “significantly decreased”. The “decrease in aortic corrected cumulative lesion area” value [8] was 34% and the “decrease in common carotid corrected cumulative lesion area” value [8] was 39%.

For IL-1β: interleukin 1β, the hair growth ([9]; Hoffmann 1997, 6 days, A 23187 2 μM, TPA 1 μM, IL-1β 100 ng per ml) is given as “significantly inhibited hair growth” and the scalp hair growth [9] is given as “inhibition”.

In the case of NCCCCCC(=O)O [ε-ACA], the “Lp(a) binding to fibronectin” value [10] is given as “not effective” and the “plasminogen binding to fibronectin” value [10] is given as “inhibited”.

In the case of CC(=O)N[C@@H](CS)C(=O)O [NAC, N-acetylcysteine], the TF activity [11] is listed as “concentration dependent inhibition”.

In the case of apo(a): apolipoprotein(a), the “plasminogen binding to fibronectin” value [10] is given as “completely abolished”.

For C[C@]1(O)CC[C@H]2[C@@H]3CCC4=CC(=O)CCC4=C3C=C[C@@]21C [R1881, methyltrienolone], the “transcription of the endogenous AR gene, of control levels” value ([12]; 8 hours) is given as 85% and the “transcription of the endogenous AR gene, of control levels” value ([12]; 24 hours) is given as 73%.

In the case of O=C(O)C[C@H](O)C[C@H](O)/C=C/c1c(C2CC2)nc2ccccc2c1-c1ccc(F)cc1 [pitavastatin], the NF-κB activation ([5]; human kidney 293 T-cells) is given as “inhibited”.

In the case of vitamin E, the “LPS induced TF expression” value [1] is listed as “inhibited” and the “Cu^+2 induced procoagulant activity” value [1] is listed as “inhibited”.

For CC1=C(/C=C/C(C)=C/C=C/C(C)=C/C(=O)O)C(C)(C)CCC1 [ATRA, all-trans retinoic acid], the “rate of TF transcription, nuclear run-on” value ([13]; LPS 10 μg/ml 1 hour, ATRA 10^−5 mol/L 30 minutes before LPS) is given as “decreased TF transcription”, the “TF mRNA” value ([13]; THP-1, 30 minutes, 10^−5 mol/L) is given as “decrease” and the “LUC activity relative to untreated cells” value ([13]; pTF(−2106)LUC transfected THP-1, 30 minutes, 10^−5 mol/L) is given as “no decrease”.

For CNc1ccc2oc(C[C@H]3O[C@@]4(CC[C@H]3C)O[C@H]([C@H](C)C(=O)c3ccc[nH]3)[C@H](C)C[C@H]4C)nc2c1C(=O)O [A 23187], the ERK phosphorylation [2, 21] is given as “increase”.

In the case of CCCCc1cc(C(=O)OC)cc(=O)n1Cc1ccc(-c2ccccc2-c2nnn[nH]2)cc1F [Bay 10-6734], the “fat-stained area in the aorta” value ([14]; controls 28.6±7.5%) is listed as 5.3±1.4% and the “% of macrophage stained area/total plaque cross sectional area” value ([14]; controls 58.8±15%) is listed as 1±0.2%.

In the case of CC(C)(O)C(=O)Nc1ccc([N+](=O)[O-])c(C(F)(F)F)c1 [hydroxyflutamide], the Elk-1 transcription activity [2, 22] is listed as “*The study also showed an increase in Elk-1 transcription activity following treatment with the androgen DHT, or the antiandrogens casodex and hydroxyflutamide. ERK phosphorylation activates Elk-1, which is a member of the ETS family”.

In the case of CCCCCCCCCCCCCC(=O)O[C@@H]1[C@@H](C)[C@@]2(O)[C@@H](C=C(CO)C[C@]3(O)C(=O)C(C)=C[C@@H]23)[C@@H]2C(C)(C)[C@]12OC(C)=O [TPA, phorbol 12-myristate 13-acetate], the ERK phosphorylation [2, 21] is listed as “increase”.

For MCP-1: a chemokine, the “average percent of monocyte remaining bound” value [15] is listed as 46%.

In the case of CCCCCCCCCCCCCCCC(=O)OC[C@H](COP(=O)([O-])OCC[N+](C)(C)C)OC(=O)CCCCCCCCCCCCCCC [DPPC, dipalmitoylphosphatidylcholine], the macrophage content ([16]; saline 10.4±3.4) is listed as 9.3±5.8 % of plaque area and the lipid content ([16]; saline 19.6±6.3) is listed as 18.1±4.7 % of plaque area.

In the case of Cc1cc(C(C)(C)C)c(O)c(C(C)(C)C)c1 [BHT], the “Cu^+2 induced procoagulant activity” value [1] is given as “inhibited”.

In the case of CC/C(=C(\c1ccccc1)c1ccc(OCCN(C)C)cc1)c1ccccc1 [tamoxifen], the “decrease in area of focal apo(a) accumulation” value [17] is given as 97%, the “decrease in average level of apo(a) in the vessel wall” value [17] is given as 69% and the “decrease in lesion area” value [17] is given as 92%. For the same molecule, the “decrease in number of lipid lesions” value [17] was 80%, the “cell attachment to ECM, fibronectin, collagen type I or IV” value ([18]; ZR75-1 breast cancer cells (Millon 1989)) was “decreased attachment” and the “cell attachment to fibronectin” value ([18]; retinal pigment epithelial (RPE) cells (Wagner 1995)) was “decreased attachment”. For the same molecule, the “cell attachment to coated plates” value [18] was “significant inhibition”.

In the case of CC(O)(CS(=O)(=O)c1ccc(F)cc1)C(=O)Nc1ccc(C#N)c(C(F)(F)F)c1 (centres unmarked) [casodex], the Elk-1 transcription activity [2, 22] is listed as “*The study also showed an increase in Elk-1 transcription activity following treatment with the androgen DHT, or the antiandrogens casodex and hydroxyflutamide. ERK phosphorylation activates Elk-1, which is a member of the ETS family”.

For CSCC[C@H](NC=O)C(=O)N[C@@H](CC(C)C)C(=O)N[C@@H](Cc1ccccc1)C(=O)O [fMLP, N-formylmethionyl-leucyl-phenylalanine], the “increase in CD18 surface membrane concentration compared to unstimulated cells” value [19] is given as 4 fold.

For TNFα, the ERK phosphorylation [2, 21] is listed as “increase” and the scalp hair growth [9] is listed as “inhibition”.

In the case of TNC: large ECM glycoprotein, the migration distance [20] is given as “increased migration distance”.

For C[C@H](CCC(=O)O)C[C@H](C)C[C@H](C)C(=O)/C=C(\O)[C@H](C)C[C@H](C)C/C=C/[C@@H](C)[C@@H](O)[C@@H](C)[C@@H](O)C[C@@H]1CC[C@@](C)([C@H]2CC[C@@](C)([C@@H](C)O)O2)O1 [ionomycin], the “cell attachment to coated plates” value [18] is listed as “Significant inhibition”.

B1: IL-1a: interleukin 1α (protein, UniProt P01583 113-271, looked up)
Interleukin-1 alpha: SAPFSFLSNVKYNFMRIIKYEFILNDALNQSIIRANDQYLTAAALHNLDEAVKFDMGAYKSSKDDAKITVILRISKTQLYVTAQDEDQPVLLKEMPEIPKTITGSETNLLFFWETHGTKNYFTSVAHPNLFIATKQDYWVCLAGGPPSITDFQILENQA
In the case of B1, the scalp hair growth [9] is given as “inhibition”.
